How the values were obtained:
H82 SCLC cells = assay: IFN response by rRT-qPCR, H82; format: cell-based; conditions: dose-dependent
Source text: (§1) FIG. 3A-3D: SF3B1 inhibition induces a potent IFN response and increases expression of IFN-regulated proteins. […] Mean±SEM, two-tailed unpaired Student's t test *p<0.05, **p<0.01, ***p<0.001, ****p<0.0001.
(§2) We also observed that SF3B1 inhibition triggers robust anti-tumor response and upregulates IFN-β, IFN-γ, and IFN-responsive genes by real-time reverse-transcription quantitative polymerase chain reaction (rRT-qPCR) in H446 and H82 cells (FIGS. 3A and 3B). […] These observations indicate that spliceosome inhibition is useful as a targeted therapy for SCLCs.

RPP631 cells in mice = assay: Combination therapy with PlaB and αPD-1 in mice, tumor size; format: in vivo; conditions: PlaB intra-tumorally and αPD-1 intra-peritoneally, days 14, 17, 20, 22; vs IgG or anti-PD1 only; 24 days
Protocol: FIG. 17: Analysis of combination therapy in mouse model using PlaB and αPD-1.
This combination therapy was tested in RPP631 cells in mice. At day 0, the mice were injected with 8×10^6 RPP631 cells. At days 14, 17, 20, and 22, the mice were injected with PlaB or a vehicle intra-tumorally and IgG or αPD-1 intra-peritoneally. The tumors were then measured over 24 days. (FIG. 17).

H446 SCLC cells = assay: Antigen (HLA-ABC) and PD-L1 expression, H446; format: cell-based, human; conditions: 48 hours of 0.5 nM PlaB
Source text: as §1, §2

WT MEF cells = assay: Survival of PlaB treated MEF WT; format: cell-based, mouse
Protocol: FIG. 16: Analysis of the effect of spliceosome inhibition on necroptosis in WT MEF cells. EV refers to cells treated with an empty vector.
Since induction of Z-nAs can result in ZBP1-dependent necroptosis, we analyzed induction of necroptosis in necroptotic competent MEFs using spliceosome inhibition. […] We also determined that MEFs ΔZBP1, WT, and Flag-ZBP1 cells treated with PlaB began dying within 24hours after treatment. With MEF Flag-ZBP1 cells showing only 20% survival after 24 hours (FIG. 16).

H446 KO cells = assay: CytoToxicity of PlaB in TNFR1-, TRADD-, FADD-, CASP8-KO H446 cells (trypan blue); format: cell-based, human; conditions: 2.5 nM PlaB, 18 hrs
Source text: […]: CytoToxicity analysis of PlaB in TNFR1-KO and TRADD-KO H82 cells […] and H446 cells (FIG. 16B). CytoToxicity analysis of PlaB in FADD-KO and CASP8-KO H82 cells (FIG. 16C) and H446 cells (FIG. 16D). EV refers to cells treated with an empty vector.
Since RIPK1 mediated apoptosis can be triggered by TNF110, TNFR1 and TRADD-KO SCLC cell lines are generated herein for subsequent studies. Here, we utilize CRISPR-Cas9 KO to effectively knockout TNFR1 and TRADD in SCLC cells. To confirm depletion of TNFR1 and TRADD proteins, cell lysates are collected and western blot analysis is performed. The following experiments are performed using the TNFR1 and TRADD-KO SCLC cells generated above.
H82 and H446 WT and TNFR1 and TRADD-KO cells generated above are treated with DMSO or 2.5 nM PlaB for 18 hrs. Then, the cells are counted using 0.4% trypan blue solution assessing total viable cells and the percent of cell survived with the H82 and H446 WT cells is compared. (FIG. 15A-15B) This allows us to confirm whether TNF is partially or fully responsible for PlaB-mediated cell death in SCLC cell lines.
Additionally, we analyzed the role played by FADD and CAPS8 in rescuing H82 and H446 cells from PlaB induced toxicity. Using the methods described above for the generation of TNFR1 and TRADD-KO cells, H82 and H446 FADD-KO cells and H82 and H446 CASP8-KO cells were generated. These cells were then treated with DMSO or 2.5 nM PlaB for 18 hrs and compared to WT H82 and H446 cells. […] (FIG. 15C and FIG. 15D)

H82 cells = assay: MAVS knock out rescue of PlaB-mediated cell death, H82; format: cell-based; conditions: MAVS KO H82; data not shown
Source text: Currently, ZBP1 and ADAR1 are the only two known proteins harbor Zα and interact with Z-NAs^104-109.

CCC(O)C(C)C1OC1CC(C)C=CC=C(C)C1OC(=O)CC(O)CCC(C)(O)C(OC(C)=O)C=CC1C (stereo not shown) [PlaB, Pladienolide B]
IFN response (H82 SCLC cells): induces potent IFN response
tumor size (RPP631 cells in mice): significantly reduced tumor size
PD-L1 expression (H446 SCLC cells): effectively upregulates
antigen expression (H446 SCLC cells): effectively upregulates
time after treatment at which cells began dying (WT MEF cells): ≤ 24 h
rescue from PlaB toxicity by CASP8-KO (H446 KO cells; H446 CASP8-KO): effectively rescued
rescue from PlaB toxicity by FADD-KO (H446 KO cells; H446 FADD-KO): effectively rescued
rescue from PlaB toxicity by TNFR1-KO (H446 KO cells; H446 TNFR1-KO): effectively rescued
rescue from PlaB toxicity by TRADD-KO (H446 KO cells; H446 TRADD-KO): effectively rescued
rescue of PlaB-mediated cell death by MAVS knock out (H82 cells): only minimally rescue

— patent US20260355180A1, “COMPOSITIONS AND METHODS FOR SPLICEOSOME-TARGETED THERAPIES” (Institute for Cancer Research d/b/a The Research Institute …, priority 2022, published 2026)
